According to the supplement of paper PMC11061612:

How the values were obtained:
Capivasertib = compound: C1CN(CCC1(C(=O)N[C@@H](CCO)C2=CC=C(C=C2)Cl)N)C3=NC=NC4=C3C=CN4 [Capivasertib]
Procedure, shortened: (§1)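 Cancer cell lines in 1536-well plates (7.5 μl DMEM/F12 or RPMI, 10% FBS) were held 24 hours at 37°C and 5% CO2 and then dosed for 72 hours at a final DMSO of typically 0.2%. Viability was taken from CellTiter-Glo 2.0 luminescence, scaled between blank-well and DMSO-well means. Curves were fitted as two-parameter logistic models with a non-linear mixed effects model, from which the single-agent IC50 was taken.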

AZD1775 = compound: C=CCn1c(=O)c2cnc(Nc3ccc(N4CCN(C)CC4)cc3)nc2n1-c1cccc(C(C)(C)O)n1 [AZD1775]; settings: max 3 µM
Procedure, shortened: as §1

Trametinib = compound: CC(=O)Nc1cccc(-n2c(=O)n(C3CC3)c(=O)c3c(Nc4ccc(I)cc4F)n(C)c(=O)c(C)c32)c1 [Trametinib]; settings: max 1 µM
Procedure, shortened: as §1

Palbociclib = compound: CC(=O)c1c(C)c2cnc(Nc3ccc(N4CCNCC4)cn3)nc2n(C2CCCC2)c1=O [Palbociclib]; settings: max 10 µM
Procedure, shortened: as §1

AZD1390 = compound: CC(C)n1c(=O)n(C)c2cnc3cc(F)c(-c4ccc(OCCCN5CCCCC5)nc4)cc3c21 [AZD1390]; settings: max 0.3 µM
Procedure, shortened: as §1

Venetoclax = compound: CC1(C)CCC(CN2CCN(c3ccc(C(=O)NS(=O)(=O)c4ccc(NCC5CCOCC5)c([N+](=O)[O-])c4)c(Oc4cnc5[nH]ccc5c4)c3)CC2)=C(c2ccc(Cl)cc2)C1 [Venetoclax]; settings: max 1 µM
Procedure, shortened: as §1

Dasatinib = compound: CC1=C(C(=CC=C1)Cl)NC(=O)C2=CN=C(S2)NC3=CC(=NC(=N3)C)N4CCN(CC4)CCO [Dasatinib]; settings: max 2 µM
Procedure, shortened: as §1

AZD2811 = compound: CCN(CCO)CCCOc1ccc2c(Nc3cc(CC(=O)Nc4cccc(F)c4)[nH]n3)ncnc2c1 [AZD2811]; settings: max 1 µM
Procedure, shortened: as §1

SN-38 = compound: CCc1c2c(nc3ccc(O)cc13)-c1cc3c(c(=O)n1C2)COC(=O)[C@]3(O)CC [SN-38]; settings: max 0.3 µM
Procedure, shortened: as §1

AZD0156 = compound: CN(C)CCCOc1ccc(-c2ccc3ncc4c(c3c2)n(C2CCOCC2)c(=O)n4C)cn1 [AZD0156]; settings: max 3 µM
Procedure, shortened: as §1

AZD4320 = compound: CN(CC[C@H](CSC1=CC=CC=C1)NC2=C(C=C(C=C2)S(=O)(=O)NC(=O)C3=CC=C(C=C3)N4CCC(CC4)[C@H](C5=CC=CC=C5C6=CC=C(C=C6)Cl)O)S(=O)(=O)C(F)(F)F)CCO [AZD4320]; settings: max 1 µM
Procedure, shortened: as §1

Alisertib = compound: COc1cc(Nc2ncc3c(n2)-c2ccc(Cl)cc2C(c2c(F)cccc2OC)=NC3)ccc1C(=O)O [Alisertib]; settings: max 10 µM
Procedure, shortened: as §1

Gefitinib = compound: COc1cc2ncnc(Nc3ccc(F)c(Cl)c3)c2cc1OCCCN1CCOCC1 [Gefitinib]; settings: max 10 µM
Procedure, shortened: as §1

Prexasertib = compound: COc1cccc(OCCCN)c1-c1cc(Nc2cnc(C#N)cn2)n[nH]1 [Prexasertib]; settings: max 1 µM
Procedure, shortened: as §1

AZD5153 = compound: COc1nnc2ccc(N3CCC(c4ccc(OCCN5CCN(C)C(=O)[C@H]5C)cc4)CC3)nn12 [AZD5153]; settings: max 1 µM
Procedure, shortened: as §1

Lapatinib = compound: CS(=O)(=O)CCNCc1ccc(-c2ccc3ncnc(Nc4ccc(OCc5cccc(F)c5)c(Cl)c4)c3c2)o1 [Lapatinib]; settings: max 10 µM
Procedure, shortened: as §1

AZD8186 = compound: C[C@@H](Nc1cc(F)cc(F)c1)c1cc(C(=O)N(C)C)cc2c(=O)cc(N3CCOCC3)oc12 [AZD8186]; settings: max 3 µM
Procedure, shortened: as §1

Crizotinib = compound: C[C@@H](Oc1cc(-c2cnn(C3CCNCC3)c2)cnc1N)c1c(Cl)ccc(F)c1Cl [Crizotinib]; settings: max 10 µM
Procedure, shortened: as §1

Savolitinib = compound: C[C@@H](c1ccc2nccn2c1)n1nnc2ncc(-c3cnn(C)c3)nc21 [Savolitinib]; settings: max 1 µM
Procedure, shortened: as §1

AZD6738 = compound: C[C@@H]1COCCN1C2=NC(=NC(=C2)C3(CC3)[S@](=N)(=O)C)C4=C5C=CNC5=NC=C4 [AZD6738]; settings: max 10 µM
Procedure, shortened: as §1

AZD5991 = compound: Cc1c2c(nn1C)CSCc1cc(n(C)n1)CSc1cc(c3ccccc3c1)OCCCc1c(C(=O)O)n(C)c3c-2c(Cl)ccc13 [AZD5991]; settings: max 1 µM
Procedure, shortened: as §1

AZD7648 = compound: Cc1cc2ncnn2cc1Nc1ncc2c(n1)n(C1CCOCC1)c(=O)n2C [AZD7648]; settings: max 10 µM
Procedure, shortened: as §1

Taselisib = compound: Cc1nc(-c2cn3c(n2)-c2ccc(-c4cnn(C(C)(C)C(N)=O)c4)cc2OCC3)n(C(C)C)n1 [Taselisib]; settings: max 10 µM
Procedure, shortened: as §1

Selumetinib = compound: Cn1cnc2c(F)c(Nc3ccc(Br)cc3Cl)c(C(=O)NOCCO)cc21 [Selumetinib]; settings: max 10 µM
Procedure, shortened: as §1

Olaparib = compound: O=C(c1cc(Cc2n[nH]c(=O)c3ccccc23)ccc1F)N1CCN(C(=O)C2CC2)CC1 [Olaparib]
Procedure, shortened: as §1

SG3199 = compound: CC1=CN2[C@@H](C1)C=NC3=CC(=C(C=C3C2=O)OC)OCCCCCOC4=C(C=C5C(=C4)N=C[C@@H]6CC(=CN6C5=O)C)OC [SG3199]; settings: max 0.001 µM
Procedure, shortened: as §1

Doxorubicin = compound: COc1cccc2c1C(=O)c1c(O)c3c(c(O)c1C2=O)C[C@@](O)(C(=O)CO)C[C@@H]3O[C@H]1C[C@H](N)[C@H](O)[C@H](C)O1 [Doxorubicin]; settings: max 1 µM
Procedure, shortened: as §1

Cell Line | IC50, cell viability 72 h (Capivasertib; max 10 µM) | IC50, cell viability 72 h (AZD1775) | IC50, cell viability 72 h (Trametinib) | IC50, cell viability 72 h (Palbociclib) | IC50, cell viability 72 h (AZD1390) | IC50, cell viability 72 h (Venetoclax) | IC50, cell viability 72 h (Dasatinib) | IC50, cell viability 72 h (AZD2811) | IC50, cell viability 72 h (SN-38) | IC50, cell viability 72 h (AZD0156) | IC50, cell viability 72 h (AZD4320) | IC50, cell viability 72 h (Alisertib) | IC50, cell viability 72 h (Gefitinib) | IC50, cell viability 72 h (Prexasertib) | IC50, cell viability 72 h (AZD5153) | IC50, cell viability 72 h (Lapatinib) | IC50, cell viability 72 h (AZD8186) | IC50, cell viability 72 h (Crizotinib) | IC50, cell viability 72 h (Savolitinib) | IC50, cell viability 72 h (AZD6738) | IC50, cell viability 72 h (AZD5991) | IC50, cell viability 72 h (AZD7648) | IC50, cell viability 72 h (Taselisib) | IC50, cell viability 72 h (Selumetinib) | IC50, cell viability 72 h (Olaparib; max 3 µM) | IC50, cell viability 72 h (SG3199) | IC50, cell viability 72 h (Doxorubicin) | IC50, cell viability 72 h (Olaparib; max 10 µM) | IC50, cell viability 72 h (Capivasertib; max 3 µM)
MHH-CALL-2 (B-Lymphoblastic Leukemia) | > 10000 nM | 1070 nM | > 1000 nM | > 10000 nM | > 300 nM | > 1000 nM | > 2000 nM | > 1000 nM | 2.33 nM | > 3000 nM | > 1000 nM | 3120 nM | > 10000 nM | 93.4 nM | > 1000 nM | > 10000 nM | > 3000 nM | 679 nM | > 1000 nM | 3260 nM | 150 nM | > 10000 nM | 9370 nM | > 10000 nM | > 3000 nM |  |  |  | 
OV-56 (Ovarian Carcinoma) | > 10000 nM | > 3000 nM | > 1000 nM | > 10000 nM | > 300 nM | > 1000 nM | > 2000 nM | > 1000 nM | 25 nM | > 3000 nM | > 1000 nM | > 10000 nM | > 10000 nM | 42.2 nM | > 1000 nM | > 10000 nM | > 3000 nM | > 10000 nM | > 1000 nM | > 10000 nM | > 1000 nM | > 10000 nM | > 10000 nM | > 10000 nM |  | > 1 nM | > 1000 nM | > 10000 nM | 
NCI-H720 (Other Solid Carcinomas) |  | 1480 nM |  |  |  |  |  | 652 nM | > 300 nM | > 3000 nM |  |  |  | 441 nM |  |  |  |  |  | 6580 nM |  | > 10000 nM |  |  |  | > 1 nM | > 1000 nM | > 10000 nM | 812 nM
NUGC-4 (Gastric Carcinoma) | > 10000 nM | 2530 nM | > 1000 nM | > 10000 nM | > 300 nM | > 1000 nM | > 2000 nM | > 1000 nM | > 300 nM | > 3000 nM | > 1000 nM | > 10000 nM | > 10000 nM | 948 nM | 582 nM | > 10000 nM | > 3000 nM | > 10000 nM | > 1000 nM | > 10000 nM | > 1000 nM | > 10000 nM | > 10000 nM | 5680 nM |  | > 1 nM | > 1000 nM | > 10000 nM | 
NCI-H1568 (Lung Adenocarcinoma) | > 10000 nM | 1760 nM | > 1000 nM | > 10000 nM | > 300 nM | > 1000 nM | > 2000 nM | > 1000 nM | 297 nM | > 3000 nM | > 1000 nM | > 10000 nM | > 10000 nM | 424 nM | > 1000 nM | > 10000 nM | > 3000 nM | > 10000 nM | > 1000 nM | > 10000 nM | > 1000 nM | > 10000 nM | > 10000 nM | > 10000 nM |  | > 1 nM | > 1000 nM | > 10000 nM | 
Detroit562 (Head and Neck Carcinoma) | 6950 nM | 430 nM | > 1000 nM | > 10000 nM | > 300 nM | > 1000 nM | 115 nM | 188 nM | 22 nM | > 3000 nM | > 1000 nM | 760 nM | > 10000 nM | 29.5 nM | 65.2 nM | 2020 nM | > 3000 nM | 1680 nM | > 1000 nM | 2150 nM | > 1000 nM | > 10000 nM | 355 nM | > 10000 nM |  | > 1 nM | > 1000 nM | > 10000 nM | 
CHP-134 (Neuroblastoma) |  | 646 nM |  |  |  |  |  |  |  | > 3000 nM |  |  |  |  |  |  |  |  |  |  |  |  |  |  | > 3000 nM |  |  |  | > 3000 nM
OE21 (Esophageal Squamous Cell Carcinoma) | 5200 nM | 718 nM | > 1000 nM | > 10000 nM | > 300 nM | > 1000 nM | 1280 nM | > 1000 nM | 214 nM | > 3000 nM | > 1000 nM | > 10000 nM | 3380 nM | 43.3 nM | 256 nM | 6830 nM | > 3000 nM | > 10000 nM | > 1000 nM |  | > 1000 nM | > 10000 nM | 1030 nM | > 10000 nM |  | > 1 nM | > 1000 nM | > 10000 nM | 
CAL-33 (Oral Cavity Carcinoma) | > 10000 nM | 659 nM | 724 nM | > 10000 nM | > 300 nM | > 1000 nM | 550 nM | 255 nM | 5.71 nM | > 3000 nM | > 1000 nM | 553 nM | > 10000 nM | 138 nM | > 1000 nM | 3530 nM | > 3000 nM | > 10000 nM | > 1000 nM | 4390 nM | > 1000 nM | > 10000 nM | 122 nM | > 10000 nM |  | > 1 nM | 219 nM | > 10000 nM | 
